Experiments:
[1] = target: 3-phosphoinositide-dependent protein kinase 1 (Homo sapiens, UniProt O15530); test: Inhibition of PDK1
[2] = target: Tyrosine-protein kinase Lyn (Homo sapiens, UniProt P07948); test: Inhibition of Protein tyrosine kinase Lyn
[3] = target: Ribosomal protein S6 kinase alpha-5 (Homo sapiens, UniProt O75582); test: Inhibition of MSK-1 kinase
[4] = target: Protein kinase C beta type (Homo sapiens, UniProt P05771); test: Inhibition of protein kinase C-betaII at 10 uM
[5] = system: Casein kinase I (Saccharomyces cerevisiae); test: Inhibition of Casein kinase I; set-up: scale not given: the % may be the effect or the level left

Chain of Ribosomal protein S6 kinase alpha-5 (O75582 whole entry): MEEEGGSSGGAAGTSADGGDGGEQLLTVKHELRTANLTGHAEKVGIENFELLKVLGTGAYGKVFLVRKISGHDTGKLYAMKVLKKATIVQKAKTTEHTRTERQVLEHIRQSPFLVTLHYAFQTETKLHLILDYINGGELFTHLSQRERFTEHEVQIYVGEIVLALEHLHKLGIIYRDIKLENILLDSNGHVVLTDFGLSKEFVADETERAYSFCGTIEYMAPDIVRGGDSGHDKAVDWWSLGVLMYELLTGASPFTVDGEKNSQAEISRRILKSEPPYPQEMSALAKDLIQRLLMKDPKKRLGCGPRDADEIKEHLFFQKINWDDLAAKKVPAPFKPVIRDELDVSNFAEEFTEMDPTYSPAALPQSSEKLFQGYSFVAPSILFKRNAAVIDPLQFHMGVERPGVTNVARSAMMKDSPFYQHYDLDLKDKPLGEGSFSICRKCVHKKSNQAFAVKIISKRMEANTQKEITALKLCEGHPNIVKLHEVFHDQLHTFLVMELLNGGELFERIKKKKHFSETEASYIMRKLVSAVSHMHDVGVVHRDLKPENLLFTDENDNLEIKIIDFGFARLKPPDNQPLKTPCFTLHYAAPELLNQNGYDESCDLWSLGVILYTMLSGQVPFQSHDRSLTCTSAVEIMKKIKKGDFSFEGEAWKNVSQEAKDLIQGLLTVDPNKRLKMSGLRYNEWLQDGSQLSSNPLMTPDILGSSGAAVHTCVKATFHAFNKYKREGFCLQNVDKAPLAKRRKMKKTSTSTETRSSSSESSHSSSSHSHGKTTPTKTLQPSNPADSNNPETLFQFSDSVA
Chain of Protein kinase C beta type (P05771 2-671 limits assumed): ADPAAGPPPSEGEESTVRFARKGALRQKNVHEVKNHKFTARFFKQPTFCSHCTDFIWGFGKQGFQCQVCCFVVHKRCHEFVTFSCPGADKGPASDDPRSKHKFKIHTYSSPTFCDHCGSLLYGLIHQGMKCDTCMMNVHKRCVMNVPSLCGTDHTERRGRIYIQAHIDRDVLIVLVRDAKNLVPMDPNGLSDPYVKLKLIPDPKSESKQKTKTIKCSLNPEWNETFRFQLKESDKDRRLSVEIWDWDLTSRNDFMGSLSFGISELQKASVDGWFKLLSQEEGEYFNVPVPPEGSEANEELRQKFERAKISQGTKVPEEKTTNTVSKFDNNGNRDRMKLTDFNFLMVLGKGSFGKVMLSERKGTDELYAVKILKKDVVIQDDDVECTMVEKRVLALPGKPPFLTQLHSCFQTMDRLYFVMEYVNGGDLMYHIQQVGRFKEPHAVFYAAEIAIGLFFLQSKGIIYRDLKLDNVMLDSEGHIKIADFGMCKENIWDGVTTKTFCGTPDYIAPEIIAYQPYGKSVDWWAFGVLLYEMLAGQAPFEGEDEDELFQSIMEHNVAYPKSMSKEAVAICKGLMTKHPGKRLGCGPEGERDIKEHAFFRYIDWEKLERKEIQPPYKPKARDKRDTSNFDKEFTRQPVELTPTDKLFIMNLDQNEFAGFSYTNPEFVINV
Chain of 3-phosphoinositide-dependent protein kinase 1 (O15530 whole entry): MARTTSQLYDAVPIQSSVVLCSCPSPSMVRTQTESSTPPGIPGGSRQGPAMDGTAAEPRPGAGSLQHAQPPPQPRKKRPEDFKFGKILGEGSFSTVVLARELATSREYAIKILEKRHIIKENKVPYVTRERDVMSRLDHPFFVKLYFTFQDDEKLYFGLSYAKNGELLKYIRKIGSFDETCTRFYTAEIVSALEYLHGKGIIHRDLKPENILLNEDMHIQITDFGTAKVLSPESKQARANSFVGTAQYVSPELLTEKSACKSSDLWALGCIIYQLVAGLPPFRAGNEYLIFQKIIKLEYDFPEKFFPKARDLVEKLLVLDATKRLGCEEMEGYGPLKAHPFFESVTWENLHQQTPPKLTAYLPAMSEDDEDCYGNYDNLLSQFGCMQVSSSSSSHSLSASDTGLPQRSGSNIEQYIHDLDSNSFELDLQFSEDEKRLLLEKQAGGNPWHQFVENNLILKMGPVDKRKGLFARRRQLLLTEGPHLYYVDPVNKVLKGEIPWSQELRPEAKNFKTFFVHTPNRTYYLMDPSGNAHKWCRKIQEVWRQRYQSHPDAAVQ
Chain of Tyrosine-protein kinase Lyn (P07948 whole entry): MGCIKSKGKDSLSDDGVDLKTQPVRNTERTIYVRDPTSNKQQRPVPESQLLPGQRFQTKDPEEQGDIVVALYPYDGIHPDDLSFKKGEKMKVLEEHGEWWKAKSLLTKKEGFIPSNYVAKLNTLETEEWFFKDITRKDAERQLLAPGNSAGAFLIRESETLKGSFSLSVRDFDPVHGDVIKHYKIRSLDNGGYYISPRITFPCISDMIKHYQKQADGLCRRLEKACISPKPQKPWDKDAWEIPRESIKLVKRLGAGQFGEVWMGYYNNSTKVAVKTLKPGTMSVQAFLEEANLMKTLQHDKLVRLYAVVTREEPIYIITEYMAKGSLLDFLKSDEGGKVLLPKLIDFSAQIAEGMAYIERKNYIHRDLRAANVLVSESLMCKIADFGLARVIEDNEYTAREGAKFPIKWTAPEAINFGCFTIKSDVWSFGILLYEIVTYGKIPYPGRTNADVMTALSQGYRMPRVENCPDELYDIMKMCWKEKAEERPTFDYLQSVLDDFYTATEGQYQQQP

| SMILES | IC50 [1] [µM] | IC50 [2] [µM] | IC50 [3] [µM] | inhibition [4] [%] | Activity [5] [%] |
| --- | --- | --- | --- | --- | --- |
| COc1ccccc1C1=C(c2cn(CCCNC(=O)OC(C)(C)C)c3ncccc23)C(=O)NC1=O | 0.57 | 1.8 |  |  |  |
| O=C1NC(=O)C(c2cn(CCCO)c3ncccc23)=C1c1ncc(C(F)(F)F)cc1Cl |  |  | > 10 | < 50 | 66 |

— ChEMBL document CHEMBL1146654, “3-(7-Azaindolyl)-4-arylmaleimides as potent, selective inhibitors of glycogen synthase kinase-3” (Bioorg Med Chem Lett, 2004)
